PubChem BioAssay (NCI)
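Briefly, cells in 96-well plates were exposed to five compound concentrations for 48 h, and endpoints were estimated by linear interpolation. GI50 marks 50% less growth. TGI: concentration producing complete growth inhibition.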 *1 amine or outer side, *2 acyl side, *3 side chain or, on linkers, in order; H or OH if unused. Where a SMILES comes first, the peptide text is derived from it. Bridges are numbered along the chain shown (N, C = ends). Roman numbers before positions name the chains, in order. [ ]: non-standard residue; d: D form. Actinocin(9to1) = Cc1c2oc3c(C)ccc(C(=O)[*:1])c3nc-2c(C(=O)[*:2])c(N)c1=O; NMeV = CN[CH](C(=O)O)C(C)C; Sar = CNCC(=O)O

Assays:
Assay in all cases: growth of human tumour cells (NCI), 48 h
[1] = test system: SK-OV-3 ovarian
[2] = test system: HCT-15 colon
[3] = test system: SNB-75 CNS
[4] = test system: PC-3 prostate
[5] = test system: SW-620 colon
[6] = test system: OVCAR-8 ovarian
[7] = test system: SNB-19 CNS
[8] = test system: RXF 393 renal
[9] = test system: HOP-62 NSCLC
[10] = test system: K-562 leukemia

SMILES | TGI [1] [µM] | TGI [2] [µM] | TGI [3] [µM] | TGI [4] [µM] | TGI [5] [µM] | TGI [6] [µM] | TGI [7] [µM] | TGI [8] [µM] | TGI [9] [µM] | TGI [10] [µM] | GI50 [8] [µM] | GI50 [1] [µM] | GI50 [2] [µM] | GI50 [3] [µM] | GI50 [4] [µM] | GI50 [9] [µM] | GI50 [10] [µM] | GI50 [6] [µM] | GI50 [7] [µM]
Nc1ncc2c(n1)-c1ccccc1OC2N1CCCCC1 (centres undefined) | > 100 | > 100 | > 100 | > 100 | > 100 | > 100 | > 100 | > 100 | – | – | – | – | – | – | – | – | – | – | –
Cc1ccc(Nc2nc(NNC(=O)Cc3ccccc3)nc(NNC(=O)c3ccncc3)n2)cc1 | > 10 | > 10 | > 10 | – | > 10 | > 10 | – | – | > 10 | > 10 | – | – | – | – | – | – | – | – | –
O=C(Nc1c(O)[nH]c(=S)[nH]c1=O)c1ccccc1 | > 100 | > 100 | > 100 | – | > 100 | > 100 | > 100 | – | > 100 | > 100 | – | – | – | – | – | – | – | – | –
O=c1cc(-c2ccc3c(c2)OCO3)[nH]c2cc3c(cc12)OCO3 | 99.4 | > 100 | 13.7 | – | > 100 | 78.1 | > 100 | 66.5 | 63 | > 100 | 20.8 | – | – | – | – | – | – | – | –
N#Cc1cccc(-n2[nH]c(=O)ccc2=O)c1 | – | > 100 | > 100 | – | > 100 | > 100 | > 100 | – | > 100 | > 100 | – | – | – | – | – | – | – | – | –
CC(C)C(NC(=O)Oc1ccccc1)C(=O)NC1c2c(Br)sc(Br)c2C(=O)C1O (centres undefined) | > 25 | 8.39 | > 25 | > 25 | 11.1 | 9.15 | 10.4 | 7.25 | – | 17.4 | – | – | – | – | – | – | – | – | –
CC(C)=C[C@H]1C[C@H](C)[C@H]2CC[C@H](C)c3c2c1c(C)c1ncoc31 | – | 34.8 | 36.2 | 35.2 | 36 | 36.8 | 32.3 | 25.7 | – | > 100 | – | – | – | – | – | – | – | – | –
Cc1c2oc3c(C)ccc(C(=O)NC4C(=O)NC(C(C)C)C(=O)N5CCCC5C(=O)N(C)CC(=O)N(C)C(C(C)C)C(=O)OC4C)c3nc-2c(C(=O)NC2C(=O)NC(C(C)C)C(=O)N3CCCC3C(=O)N(C)CC(=O)N(C)C(C(C)C)C(=O)OC2C)c(N)c1=O (centres undefined) (I: TVP[Sar][NMeV] / II: TVP[Sar][NMeV]; ester I:1-I:C, II:1-II:C; linker I:N-II:N via Actinocin(9to1); configuration not given here) | > 1 | > 1 | 0.000907 | 0.0317 | 0.105 | 0.00772 | > 0.35 | 0.00653 | 0.00696 | – | – | – | – | – | – | – | – | – | –
CC(=O)OCCOCNC(=S)N/N=C/c1ccc([N+](=O)[O-])o1 | > 100 | > 100 | > 100 | – | > 100 | > 100 | > 100 | > 100 | > 100 | > 100 | – | – | – | – | – | – | – | – | –
O=C1/C(=C\c2ccc(Cl)cc2Cl)Sc2scc(-c3ccc(O)c(O)c3)[n+]21 | 39.2 | 30.1 | 53.4 | 36.4 | 29.7 | 35.2 | 48.8 | 37.1 | 30.1 | – | – | – | – | – | – | – | – | – | –
COc1cc(C2C(Cl)C(=O)N2n2cnc3ccccc3c2=O)ccc1O (centres undefined) | > 100 | > 100 | > 100 | – | > 100 | > 100 | > 100 | > 100 | > 100 | – | – | – | – | – | – | – | – | – | –
CCOC(=O)c1ccc(-c2cc(C)no2)[nH]1 | > 100 | > 100 | > 100 | > 100 | > 100 | > 100 | > 100 | > 100 | – | > 100 | – | – | – | – | – | – | – | – | –
COC(=O)c1ccc(Cc2cc(Cc3ccc(C(=O)OC)cc3)cc(Cc3ccc(C(=O)OC)cc3)c2)cc1 | > 25 | > 25 | > 25 | > 25 | > 25 | > 25 | > 25 | – | > 25 | > 25 | – | – | – | – | – | – | – | – | –
CCn1cnc2c(=S)nc(N)[nH]c21 | > 100 | > 100 | > 100 | – | > 100 | > 100 | > 100 | > 100 | > 100 | > 100 | – | – | – | – | – | – | – | – | –
Cc1cn(C2OC(CO[Si](C)(C)C(C)(C)C)C(N(C)O[Si](C)(C)C(C)(C)C)C2[Se]c2ccccc2)c(=O)[nH]c1=O (centres undefined) | > 100 | 30.1 | 21.4 | 34 | > 100 | 24.6 | 32.2 | – | 43.1 | > 100 | – | – | – | – | – | – | – | – | –
CCOC(=O)/C(=C/c1ccc(OC)cc1)N(CC)CC | > 100 | > 100 | – | – | > 100 | > 100 | > 100 | – | > 100 | > 100 | – | – | – | – | – | – | – | – | –
CCCCCCOc1ccc(/C=N/Nc2cc(C)nc3ccc(Cl)cc23)cc1 | 3.11 | 2.55 | 3.43 | 3.21 | – | 4.21 | 3.39 | 2.97 | 3.08 | 2.22 | 1.56 | 1.7 | 1.27 | 1.81 | 1.57 | 1.55 | 0.467 | 1.91 | 1.88
COc1ccc(C2Oc3cc(OC)c(OC)cc3C2CCl)cc1OC (centres undefined) | – | > 100 | > 100 | – | > 100 | > 100 | > 100 | – | > 100 | > 100 | – | – | – | – | – | – | – | – | –
CCNC(=O)c1ccc(C)c(N=NN(C)C)c1 | – | > 100 | – | – | > 100 | > 100 | > 100 | – | > 100 | – | – | – | – | – | – | – | – | – | –
O=C1/C(=C/c2ccco2)NC(=S)N1CN1CCCCC1 | > 100 | > 100 | > 100 | > 100 | > 100 | > 100 | > 100 | – | > 100 | > 100 | – | – | – | – | – | – | – | – | –
Cc1[nH]c(=O)nc2sc(=NC3CCCCC3)n(C3CCCCC3)c(=O)c12 | > 100 | > 100 | > 100 | > 100 | > 100 | > 100 | > 100 | – | > 100 | > 100 | – | – | – | – | – | – | – | – | –
CCOC(=O)c1nnn(CCCCO)c1C(=O)OCC | – | > 100 | > 100 | > 100 | > 100 | > 100 | 84.5 | > 100 | > 100 | – | – | – | – | – | – | – | – | – | –
COC(=O)c1cccc(C)c1C1CN=NC12Cc1cc(C)cc(C)c1C2=O (centres undefined) | – | > 100 | 83.1 | – | > 100 | > 100 | > 100 | > 100 | > 100 | > 100 | – | – | – | – | – | – | – | – | –
